Two compounds from patent US20240131022A1 (published 2024) can be followed below.

The target of one data set is δ-receptor (Homo sapiens, UniProt P41143). The data set is described as follows: Functional profile in CHO transfected cells, δ-receptor inhibition. Format: cell-based.
Data set [1] can be described thus: Stability in brain homogenate. The settings on record: within the time frame of the study.
For the next data set, the target named is k-receptor (Homo sapiens, UniProt P41145). The data set is described as follows: cell-based. The settings on record: read-out: k-receptor activation (IC50 or %).
The next data set deals with μ-receptor (Homo sapiens, UniProt P35372). Put plainly: cell-based.
μ-receptor, sequence (P35372 whole entry): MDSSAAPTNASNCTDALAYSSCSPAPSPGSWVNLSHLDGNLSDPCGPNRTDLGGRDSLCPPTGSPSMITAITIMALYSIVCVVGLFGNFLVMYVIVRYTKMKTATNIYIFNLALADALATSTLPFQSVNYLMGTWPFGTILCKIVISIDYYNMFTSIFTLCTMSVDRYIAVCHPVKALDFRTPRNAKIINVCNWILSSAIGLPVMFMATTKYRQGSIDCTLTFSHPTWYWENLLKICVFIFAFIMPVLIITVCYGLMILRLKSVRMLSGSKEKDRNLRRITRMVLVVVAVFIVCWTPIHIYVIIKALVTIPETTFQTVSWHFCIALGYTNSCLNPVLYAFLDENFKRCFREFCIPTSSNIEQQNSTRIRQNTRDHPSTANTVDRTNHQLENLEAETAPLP

δ-receptor, sequence (P41143 whole entry): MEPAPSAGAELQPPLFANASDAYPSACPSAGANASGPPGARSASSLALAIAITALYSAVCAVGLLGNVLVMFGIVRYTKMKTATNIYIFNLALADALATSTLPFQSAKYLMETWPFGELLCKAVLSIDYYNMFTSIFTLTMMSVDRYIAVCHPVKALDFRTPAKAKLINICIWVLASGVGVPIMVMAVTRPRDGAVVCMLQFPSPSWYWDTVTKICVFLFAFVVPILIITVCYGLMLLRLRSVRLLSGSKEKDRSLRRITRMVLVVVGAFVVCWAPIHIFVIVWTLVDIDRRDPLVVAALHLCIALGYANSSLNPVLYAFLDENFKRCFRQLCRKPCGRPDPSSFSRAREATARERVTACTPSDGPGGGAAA
k-receptor, sequence (P41145 whole entry): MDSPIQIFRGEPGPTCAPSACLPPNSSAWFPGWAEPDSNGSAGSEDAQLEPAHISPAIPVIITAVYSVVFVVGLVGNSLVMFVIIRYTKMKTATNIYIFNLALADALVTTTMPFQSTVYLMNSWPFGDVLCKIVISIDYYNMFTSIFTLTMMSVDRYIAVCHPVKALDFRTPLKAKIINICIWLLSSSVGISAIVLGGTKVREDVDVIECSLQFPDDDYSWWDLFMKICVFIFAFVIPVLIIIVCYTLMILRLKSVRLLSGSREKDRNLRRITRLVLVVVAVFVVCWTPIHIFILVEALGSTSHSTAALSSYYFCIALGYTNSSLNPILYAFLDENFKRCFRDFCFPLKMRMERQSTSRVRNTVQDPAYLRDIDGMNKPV

Take `C/C=C/C=C/C(=O)Oc1ccc2c3c1OC1C(O)CCC4(O)C(C2)N(CC2CCC2)CCC314` (stereo not shown) [NB33, 3-hexadienoate derivative of nalbuphine]: the IC50 against δ-receptor was over 10 µM. Besides, in data set [1], the “intact in brain homogenate” value amounted to 65±6%. For the same compound, the activation at 1 µM on k-receptor came out at 22.3%. The inhibition at 1 µM at μ-receptor (read-out: μ-receptor inhibition (IC50 or %)) was 82.8%.
For `C=CCN1CCC23c4c5ccc(OC(=O)/C=C/C=C/C)c4OC2C(=O)CCC3(O)C1C5` (stereo not shown) [NX90, 3-hexadienoate derivative of naloxone], the IC50 on δ-receptor was over 10 µM; against μ-receptor it was 0.137 ± 0.012 µM. For the same compound, in data set [1], the “intact in brain homogenate” value is listed as 85±13%.

By IC50 is commonly meant the point on the concentration scale where inhibition reaches its midpoint. A low value points to greater potency. In general, inhibition refers to the drop in the measured response relative to a control, in per cent.
